Measurements reported in paper PMC6687188, “Novel lactate dehydrogenase inhibitors with in vivo efficacy against Cryptosporidium parvum” (PLoS Pathogens, 2019).

molecular target: recombinant CpLDH protein (Cryptosporidium parvum, UniProt Q9GT92, F198L/K295E/R251K)

Compared with `O=S(=O)(O)SC/C=C\CSS(=O)(=O)O.[Na+]` [NSC624161], `CC(=O)/C(=C\c1cccc([N+](=O)[O-])c1)C(=O)Nc1ccccc1C` [NSC634658] is higher in “MEAN CpLDH INHIBITION (%)” value: -27.85% for the first, -26.76% for the second.

Compared with `Cl.NCCSSCc1ccccc1CSSCCN` [NSC624169], `O=C(NCCCCCCCCNC(=O)c1cccc2ccccc12)c1cccc2ccccc12` [NSC629738] is higher in “MEAN CpLDH INHIBITION (%)” value: -25.23% for the first, -0.22% for the second.

Compared with `CC12CC(Br)(Br)C(=O)C3C1CCCC32` [NSC624358], `CC1CCCC(C(=O)/C(=C/c2cccc(Cl)c2)C(=O)C(=O)O)C1` (centres unmarked) [NSC636084] is higher in “MEAN CpLDH INHIBITION (%)” value: -23.30% for the first, -20.56% for the second.

Compared with `Cc1[nH]c(=O)nc(N/N=C/c2ccc(Cl)cc2)c1C(=O)Nc1ccc(Cl)cc1` [NSC624947], `O=C(NC(=O)c1c(Cl)nc2sccn12)Nc1ccc(Cl)cc1` [NSC633209] is lower in “MEAN CpLDH INHIBITION (%)” value: -0.76% for the first, -19.92% for the second.

Going from `C=CCOC1OC(CO[Si](C)(C)C(C)(C)C)C(OCc2ccccc2)C(OCc2ccccc2)C1OCc1ccccc1` (centres unmarked) [NSC624953] to `O=C(CC(=O)c1ccccc1)CC(O)(c1ccccc1)c1ccccc1` [NSC634232], the “MEAN CpLDH INHIBITION (%)” value rises from -142.25% to -33.26%.

Going from `CCN(CC)CCCNc1ncc(C)c2[nH]c3ccncc3c12.O=C(O)/C=C\C(=O)O` [NSC625331] to `Cc1ccc(NC(=O)C(=O)CC(=O)c2ccccc2)cc1C` [NSC636126], the “MEAN CpLDH INHIBITION (%)” value rises from -26.39% to -16.52%.

Going from `O=c1ncccn1C1OC(CO)C(O)C1F` (centres unmarked) [NSC625355] to `COC1OC(COCc2ccc(Cl)cc2)C(OCc2ccc(Cl)cc2)C1O` (centres unmarked) [NSC626120], the “MEAN CpLDH INHIBITION (%)” value rises from -50.28% to -0.60%.

Going from `Fc1cccc(Cl)c1C1SCc2nc3ccccc3n21` (centres unmarked) [NSC625483] to `Fc1cccc(F)c1C1SCc2nc3ccccc3n21` (centres unmarked) [NSC625487], the “MEAN CpLDH INHIBITION (%)” value falls from -18.24% to -32.18%.

First: COc1ccc2cccc(C(=N)c3ccc(C)c4c3CCC4)c2c1 [NSC625590]
Second: COc1ccc(C2=Nc3ccccc3SC(C)C2)cc1 (centres unmarked) [NSC636817]
The “MEAN CpLDH INHIBITION (%)” value of the first is lower: -11.59% for the first, -5.00% for the second.

Going from `Cc1ccccc1NC(=O)/C=N/O` [NSC625639] to `Cc1ccccc1NC(=O)C(=O)C(C#N)c1ccccc1C` (centres unmarked) [NSC636132], the “MEAN CpLDH INHIBITION (%)” value rises from -116.71% to -58.66%.

Going from `Cc1cc([N+](=O)[O-])ccc1Nc1cccc(Cl)c1C` [NSC625641] to `Cc1c(Cl)cccc1NC(=O)CC1Sc2ccccc2NC1=O` (centres unmarked) [NSC634396], the “MEAN CpLDH INHIBITION (%)” value falls from -6.68% to -17.78%.

Going from `C1CN(c2nnc(N3CCC3)nn2)C1` [NSC625748] to `CN1CCN(CCSC2Cc3cc(Cl)ccc3Sc3ccccc32)CC1` (centres unmarked) [NSC635366], the “MEAN CpLDH INHIBITION (%)” value rises from -117.70% to -12.08%.

Compared with `COc1ccccc1Cc1nc(-c2ccccc2)nn(C2OC(COC(C)=O)C(OC(C)=O)C(OC(C)=O)C2OC(C)=O)c1=S` (centres unmarked) [NSC625873], `O=C(CCc1ccccc1)On1nnc2ccccc2c1=O` [NSC630374] is higher in “MEAN CpLDH INHIBITION (%)” value: -25.33% for the first, -20.24% for the second.

First: COc1ccc(C2C(C)C(=O)C(C)C(c3ccc(OC)cc3)N2N=O)cc1 (centres unmarked) [NSC626734]
Second: COC(=O)C1=CC(=O)C(C(=O)Nc2ccc(OC)cc2)C(c2ccccc2)O1 (centres unmarked) [NSC634473]
The “MEAN CpLDH INHIBITION (%)” value of the first is higher: -0.09% for the first, -29.85% for the second.

Compared with `COc1cc2c3c(c1OC)-c1cc4c(cc1CC3(C#N)N(C(=O)c1ccccc1)CC2)OCO4` (centres unmarked) [NSC627666], `O=C(c1ccccc1)C1OC12C(=O)Nc1c(Cl)cc(Cl)cc12` (centres unmarked) [NSC635306] is lower in “MEAN CpLDH INHIBITION (%)” value: -0.33% for the first, -37.53% for the second.

First: Cc1ccc(S(=O)(=O)c2ccccc2[N+](=O)[O-])cc1 [NSC627708]
Second: O=[N+]([O-])c1ccccc1S(=O)(=O)c1ccccc1[N+](=O)[O-] [NSC633001]
The “MEAN CpLDH INHIBITION (%)” value of the first is higher: -13.84% for the first, -15.73% for the second.

Compared with `N#CC1(C#N)C2C=CC(c3coc4cccc2c34)C1(C#N)C#N` (centres unmarked) [NSC629301], `N#CC1=C(N)Oc2c(ccc3cccnc23)C1c1ccccc1` (centres unmarked) [NSC631583] is lower in “MEAN CpLDH INHIBITION (%)” value: -23.71% for the first, -36.52% for the second.

First: O=C1CCC(c2ccccc2)=NN1c1nc2ccccc2s1 [NSC629659]
Second: O=C1C(c2cnc3ccccc3n2)=C(O)c2ccccc21 [NSC634224]
The “MEAN CpLDH INHIBITION (%)” value of the first is higher: -32.05% for the first, -37.07% for the second.

First: O=C1c2ccccc2C(=O)c2nc(-c3ccccc3)c(-c3ccccc3)nc21 [NSC629713]
Second: O=C1c2ccccc2C(=O)c2sc(Nc3ccc(Cl)cc3)nc21 [NSC631529]
The “MEAN CpLDH INHIBITION (%)” value of the first is higher: -5.77% for the first, -18.60% for the second.

Going from `CC[C@@]1(O)C(=O)OCc2c1cc1n(c2=O)Cc2cc3c(N)cccc3nc2-1` [NSC629971] to `O=C(CC1(O)C(=O)Nc2c(Cl)cc(Cl)cc21)c1cccc2ccccc12` (centres unmarked) [NSC635328], the “MEAN CpLDH INHIBITION (%)” value falls from -14.81% to -47.14%.

Compared with `Cn1cnc([N+](=O)[O-])c1Sc1nnnn1-c1ccccc1` [NSC631152], `Cn1cnc([N+](=O)[O-])c1Sc1nnc(-c2cccnc2)n1C` [NSC631160] is higher in “MEAN CpLDH INHIBITION (%)” value: -45.89% for the first, -15.11% for the second.

First: O=C1c2ccccc2C(=O)c2sc(Nc3ccc(Cl)c(Cl)c3)nc21 [NSC631521]
Second: O=C1C=C(Nc2cccnc2)c2ccccc2C1=O [NSC637729]
The “MEAN CpLDH INHIBITION (%)” value of the first is higher: -0.12% for the first, -66.55% for the second.

Going from `COc1ccc(Cc2nc3ccccc3s2)cc1OC` [NSC632233] to `O=C(/C=C/c1c(O)ccc2ccccc12)c1cccc(O)c1` [NSC636786], the “MEAN CpLDH INHIBITION (%)” value falls from -7.14% to -25.27%.

Compared with `Cc1ccc(/C=C2\CNC/C(=C\c3ccc(C)cc3)C2=O)cc1.Cl` [NSC632839], `C=CC(=O)N1C/C(=C\c2ccccc2)C(=O)/C(=C/c2ccccc2)C1` [NSC632841] is lower in “MEAN CpLDH INHIBITION (%)” value: -15.78% for the first, -21.11% for the second.

First: CCOC(=O)CCn1ncc(Cl)c(Cl)c1=O [NSC634471]
Second: O=C(CC1(O)C(=O)Nc2c(Cl)ccc(Cl)c21)c1ccc(Cl)cc1Cl (centres unmarked) [NSC635436]
The “MEAN CpLDH INHIBITION (%)” value of the first is higher: -23.23% for the first, -79.39% for the second.

Going from `CCc1cccc(CC)c1NC(=O)C(C#N)C1=C(Cl)C(=O)c2ccccc2C1=O` (centres unmarked) [NSC634503] to `Cn1c(=O)c2nc3sc4c(n3c2n(C)c1=O)C(=O)c1ccccc1C4=O` [NSC634568], the “MEAN CpLDH INHIBITION (%)” value falls from -5.79% to -8.97%.

Compared with `O=C1C=CC(CC(=O)c2ccc3ccccc3c2)O1` (centres unmarked) [NSC634650], `CCOc1ccccc1NC(=O)CC1Sc2ccccc2NC1=O` (centres unmarked) [NSC637680] is higher in “MEAN CpLDH INHIBITION (%)” value: -31.23% for the first, -16.33% for the second.

Compared with `O=S1(=O)OCCOS(=O)(=O)C1Cc1ccccc1` [NSC634863], `CC1=C(C(=O)NCc2ccccc2)C(c2ccccc2O)C(C(=O)NCc2ccccc2)=C(C)N1` [NSC634928] is lower in “MEAN CpLDH INHIBITION (%)” value: -18.12% for the first, -21.25% for the second.

Going from `[O-][S+]1c2ccccc2N=C(c2cccc3ccccc23)CC1c1cccc2ccccc12` (centres unmarked) [NSC634926] to `NC(=Nc1nc(-c2ccccn2)cc2ccccc12)c1ccccn1` [NSC637578], the “MEAN CpLDH INHIBITION (%)” value falls from -0.08% to -28.84%.

Going from `C/C(NNC(=O)c1ccccc1O)=C1\C=Nc2ccccc2S1` [NSC635121] to `COC(=O)/C(=N\NC(=O)c1ccccc1O)C(C#N)c1ccccc1` (centres unmarked) [NSC635337], the “MEAN CpLDH INHIBITION (%)” value falls from 0.03% to -28.29%.

Going from `COC(=O)c1[nH]c(=S)[nH]c(=O)c1-c1ccc(Cl)cc1` [NSC635140] to `O=C(CC1(O)C(=O)Nc2c(Cl)ccc(Cl)c21)c1ccc(Cl)cc1` (centres unmarked) [NSC635437], the “MEAN CpLDH INHIBITION (%)” value rises from -15.60% to -7.08%.

Compared with `O=C(c1ccccc1)C(c1ccccc1)C1(O)C(=O)Nc2c(Cl)cc(Cl)cc21` (centres unmarked) [NSC635312], `Cc1cc(Cl)cc2c1NC(=O)C2(O)C(C(=O)c1ccccc1)c1ccccc1` (centres unmarked) [NSC635435] is lower in “MEAN CpLDH INHIBITION (%)” value: -41.63% for the first, -63.48% for the second.

Going from `Cc1c(Cl)ccc2c1NC(=O)C2(O)C(C(=O)c1ccccc1)c1ccccc1` (centres unmarked) [NSC635321] to `Cc1ccccc1OCC(COC(=O)Nc1ccccc1)OC(=O)Nc1ccccc1` (centres unmarked) [NSC635824], the “MEAN CpLDH INHIBITION (%)” value rises from -39.51% to -3.02%.

First: O=C(CC1(O)C(=O)Nc2c(Cl)cc(Cl)cc21)c1ccc([N+](=O)[O-])cc1 (centres unmarked) [NSC635326]
Second: O=C(CC1(O)C(=O)Nc2c(Cl)cc(Cl)cc21)c1cccc([N+](=O)[O-])c1 (centres unmarked) [NSC635438]
The “MEAN CpLDH INHIBITION (%)” value of the first is higher: -38.78% for the first, -43.53% for the second.

Compared with `O=C(N=Nc1c(O)[nH]c2ccccc12)c1ccccc1O` [NSC635404], `CC(=O)/C(C)=N/NC(=O)c1ccccc1O` [NSC635441] is lower in “MEAN CpLDH INHIBITION (%)” value: -38.57% for the first, -52.88% for the second.

First: NS(=O)(=O)c1nc2nc[nH]c(=O)c2[nH]1 [NSC635448]
Second: O=[N+]([O-])c1cc(-c2nc(=S)[nH][nH]2)ccc1O [NSC635563]
The “MEAN CpLDH INHIBITION (%)” value of the first is higher: -5.65% for the first, -59.68% for the second.

Compared with `Cc1c(C(=O)C/C(=N/NC(=O)CC#N)C(N)=O)[n+](=O)c2ccccc2n1[O-]` [NSC635542], `Cc1c(C(=O)C/C(=N\O)C(=O)Nc2cc(Cl)c(Cl)cc2Cl)[n+](=O)c2ccccc2n1[O-]` [NSC635544] is lower in “MEAN CpLDH INHIBITION (%)” value: -10.72% for the first, -233.40% for the second.

Compared with `COC(=O)C(=O)C(C(=O)Nc1cccc(C)c1C)C1Sc2ccccc2NC1=O` (centres unmarked) [NSC635833], `CC(C)(C)c1ccc(OC2CCO2)cc1` (centres unmarked) [NSC635975] is lower in “MEAN CpLDH INHIBITION (%)” value: -26.59% for the first, -52.75% for the second.

`CC1=NC(C(C)C)C(=O)O1` (centres unmarked) [NSC635968] was tested, and the “MEAN CpLDH INHIBITION (%)” value was -7.14%.
